Assay results from patent US11986512B2, “Compositions and methods for cancer therapy” (Thetis Pharmaceuticals LLC, priority 2021, dated 2024).

Columns and labels:
[1] = system: polymorphonuclear leukocyte (PMN) recruitment; conditions: equimolar dose; cited from earlier work
[2] = system: CD4+ and CD8+ cells in the liver; conditions: administration of either RvD1 or RvE1; cited from earlier work
HPV tumorigenesis = conditions: cited from earlier work
LLC cells [3] = assay: Metastatic LLC resection model, perioperative (neo-adjuvant) treatment; assay type: in vivo, C57BL/6J male mice; conditions: 5 mg/kg, i.p, Q6D, first dose 24 hours prior to surgery; compared to vehicle control
Experimental: To investigate the efficacy of LTD dosing of bis RvE1 Mg-di-lysinate as neo-adjuvant therapy, a study was conducted in the metastatic LLC resection model with treatment initiated in the perioperative window. A total of fifteen (15) C57BL/6J male mice were injected subcutaneously with 1×10e6 living LLC cells. Once tumors reached approximately 1200-1500 mme3 in size, the mice were randomized (n=4-8 per group) to treatment with vehicle (SC, Q6D), bis RvE1 Mg-di-lysinate (300 ug/kg, SC, Q6D), or cisplatin (5 mg/kg, i.p, Q6D), followed by surgical resection of the tumors. The mice in the vehicle and cisplatin groups received an initial dose twenty-four (24) hours prior to surgery, and the mice treated with bis RvE1 Mg-di-lysinate received an initial dose two (2) hours prior to surgery. All mice were sacrificed on day 19 following the death of three mice in the vehicle control group on day 18.

LLC cells [4] = assay: Lewis lung carcinoma (LLC) model, with and without anti-PD1 or cisplatin; assay type: in vivo, C57BL/6J male mice; conditions: monotherapy, 5 mg/kg, i.p, Q5D
Experimental: A representative compound of Formula IV, RvE1 magnesium dilysinate, was tested for efficacy in several mouse models of cancer, including the Panc2-H7 model of pancreatic cancer, the Lewis lung carcinoma (LLC) model, the MC38 model of colorectal cancer, and the B16F10 model of melanoma. These models are well established, highly tumorigenic syngeneic models in which murine cancer cell lines are injected subcutaneously (SC) into the dorsum of C57BL/6J mice. If left untreated, these tumors grow rapidly and lead to death or euthanasia, per protocol. As detailed below in Examples 1-9 and the accompanying figures, bis RvE1 Mg-di-lysinate (Compound 1) was unexpectedly effective as an anti-cancer agent in each of these model systems when administered in a less than daily (LTD) dosing regimen. […] Without being bound by any theory, the surprising efficacy of LTD dosing of resolvins in the cancer model systems described here may be the result of durable effects on the tumor microenvironment including changes in immune cell phenotype, vascularization, stromal phenotype, and antigen presentation, as well as durable effects on the T-cell compartment such as T-cell priming and increased tumor-infiltrating lymphocytes.
To expand our understanding of bis RvE1 Mg-di-lysinate as a cancer therapy that could be used in combination with other cancer therapies including immune checkpoint inhibitors, bis RvE1 Mg-di-lysinate monotherapy and in combination either anti-PD1 or cisplatin was investigated in the LLC model of non-small cell lung cancer, which is a model known to unresponsive to anti-PD1 therapy and moderately responsive to cisplatin. Yu et al., J Exp Clin Cancer Res. 2010; 29(1):46; Lechner et al., J Immunother. 2013; 36(9):477-489. A total of forty (40) C57BL/6J male mice were injected subcutaneously with 1×10e6 living LLC cells. […] In addition, bis RvE1 Mg-di-lysinate was evaluated in combination with anti-PD1 or cisplatin. […]

KPC cells = assay: Orthotopic KPC model of pancreatic cancer, survival; assay type: in vivo, C57BL/6J male mice
Experimental: To expand our understanding of less than daily (LTD) dosing of bis RvE1 Mg-di-lysinate as a cancer therapy that could be used in combination with chemotherapy, bis RvE1 Mg-di-lysinate (Compound 1) was investigated in the orthotopic KPC model of pancreatic cancer. A total of fifteen (15) C57BL/6J male mice were implanted orthotopically with 5×10e5 living KPC cells into the pancreas. The mice were randomized (n=7-8) to treatment with bis RvE1 Mg-di-lysinate (300 ug/kg, SC, Q6D) with or without gemcitabine (50 mg/kg, IP, Q3D, up to 6 doses) one day after tumor cell implantation.

CCC(=O)/C=C/C=C\C[C@@H](O)/C=C/C=C/C=C\[C@@H](O)CCCC(=O)O [Compound 18-oxo-RvE1, 18-oxo-RvE1]
activity in zymosan-induced peritonitis (PMN recruitment) [1]: devoid of activity

CC/C=C\C[C@H](O)/C=C/C=C\C=C\C=C\[C@@H](O)[C@@H](O)C/C=C\CCC(=O)O [RvD1, 7S,8R,17S-trihydroxy-4Z,9E,11E,13Z,15E,19Z-docosahexaenoic acid]
levels of CD4+ and CD8+ cells in the liver [2]: markedly downregulated levels of CD4+ and CD8+ cells in the liver
tumor infiltration levels of CD4+ and CD8+ T cells (HPV tumorigenesis; in vivo): did not modify tumor infiltration levels of CD4+ and CD8+ T cells
tumor progression (HPV tumorigenesis; via modulated activity of tumor-associated neutrophils (PMN)): reduce tumor progression

CC[C@@H](O)/C=C/C=C\C[C@@H](O)/C=C/C=C/C=C\[C@@H](O)CCCC(=O)O [RvE1, 5S,12R,18R-trihydroxy-6Z,8E,10E,14Z,16E-eicosapentaenoic acid]
activity in zymosan-induced peritonitis (PMN recruitment) [1]: potently reduced polymorphonuclear leukocyte (PMN) recruitment
levels of CD4+ and CD8+ cells in the liver [2]: markedly downregulated levels of CD4+ and CD8+ cells in the liver

N.N.[Cl][Pt][Cl] [cisplatin, reference compound]
number of lung metastases (LLC cells [3]): failed to show a significant reduction
number of mice with lymph node metastasis (LLC cells [3]): failed to show a significant reduction
tumor volume (Day 11 vs Day 0) (LLC cells [4]): failed to demonstrate efficacy as monotherapy compared to placebo

Nc1ccn([C@@H]2O[C@H](CO)[C@@H](O)C2(F)F)c(=O)n1 [gemcitabine, reference compound]
mice alive as of the last observation (day 250) (KPC cells; gemcitabine monotherapy group): zero of eight mice
mean survival (KPC cells; gemcitabine monotherapy, 50 mg/kg, IP, Q3D, up to 6 doses): 25 days
